Inconclusive results and toxic doses are left out. The calls were made as follows: active = survival T/C of 150% or more; inactive = T/C below 125% in these data.
Test system: P388 leukemia ip, CD2F1 mice, survival T/C
Experiment: NCI In Vivo Anticancer Drug Screen. Data for tumor model P388 Leukemia (intraperitoneal) in CD2F1 (CDF1) mice
Conditions: endpoint: median survival time, higher = longer survival
In short: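 Mice carrying the transplanted tumor received test compound or vehicle. Survival was recorded in each group, and the value is the treated-group measurement divided by that of the vehicle-treated control group.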

[1] = dose: 12.5 mg/kg/injection, schedule: Q01DX005 (ip), vehicle: Klucel (hydroxypropylcellulose) (HPC)
[2] = dose: 25.0 mg/kg/injection, schedule: Q01DX005 (ip), vehicle: Klucel (hydroxypropylcellulose) (HPC)
[3] = dose: 50.0 mg/kg/injection, schedule: Q01DX005 (ip), vehicle: Klucel (hydroxypropylcellulose) (HPC)
[4] = dose: 25.0 mg/kg/injection, schedule: Q04DX003 (ip), vehicle: saline with Tween-80
[5] = dose: 50.0 mg/kg/injection, schedule: Q04DX003 (ip), vehicle: saline with Tween-80
[6] = dose: 100.0 mg/kg/injection, schedule: Q04DX003 (ip), vehicle: saline with Tween-80
[7] = dose: 200.0 mg/kg/injection, schedule: Q04DX003 (ip), vehicle: saline with Tween-80
[8] = dose: 100.0 mg/kg/injection, schedule: Q01DX005 (ip), vehicle: Klucel (hydroxypropylcellulose) (HPC)
[9] = dose: 60.0 mg/kg/injection, schedule: Q01DX005 (ip), vehicle: saline with Tween-80
[10] = dose: 120.0 mg/kg/injection, schedule: Q01DX005 (ip), vehicle: saline with Tween-80
[11] = dose: 400.0 mg/kg/injection, schedule: Q04DX003 (ip), vehicle: saline with Tween-80

Measured: T/C

C=C1C(=O)OC2CC1C(OC(C)=O)C/C(C)=C/CC/C(C)=C\CCC2(C)O (stereo unspecified)
inactive: dose: 5.0 mg/kg/injection, schedule: Q01DX009 (ip), vehicle: Klucel (hydroxypropylcellulose) (HPC) 107 % of control | dose: 8.0 mg/kg/injection, schedule: Q01DX009 (ip), vehicle: Klucel (hydroxypropylcellulose) (HPC) 103 % of control | dose: 10.0 mg/kg/injection, schedule: Q01DX009 (ip), vehicle: Klucel (hydroxypropylcellulose) (HPC) 109 % of control | dose: 16.0 mg/kg/injection, schedule: Q01DX009 (ip), vehicle: Klucel (hydroxypropylcellulose) (HPC) 95 % of control | dose: 20.0 mg/kg/injection, schedule: Q01DX009 (ip), vehicle: Klucel (hydroxypropylcellulose) (HPC) 116 % of control | dose: 25.0 mg/kg/injection, schedule: Q04DX002 (ip), vehicle: saline 100 % of control | dose: 32.0 mg/kg/injection, schedule: Q01DX009 (ip), vehicle: Klucel (hydroxypropylcellulose) (HPC) 106 % of control | dose: 40.0 mg/kg/injection, schedule: Q01DX009 (ip), vehicle: Klucel (hydroxypropylcellulose) (HPC) 117 % of control | dose: 50.0 mg/kg/injection, schedule: Q04DX002 (ip), vehicle: saline 94 % of control | dose: 64.0 mg/kg/injection, schedule: Q01DX009 (ip), vehicle: Klucel (hydroxypropylcellulose) (HPC) 106 % of control | dose: 100.0 mg/kg/injection, schedule: Q04DX002 (ip), vehicle: saline 103 % of control | dose: 200.0 mg/kg/injection, schedule: Q04DX002 (ip), vehicle: saline 103 % of control

CCOP(=S)(OCC)Oc1ccc([N+](=O)[O-])cc1
inactive: dose: 0.06 mg/kg/injection, schedule: Q01DX009 (ip), vehicle: saline 102 % of control | dose: 0.12 mg/kg/injection, schedule: Q01DX009 (ip), vehicle: saline 106 % of control | dose: 0.25 mg/kg/injection, schedule: Q01DX009 (ip), vehicle: saline 107 % of control | dose: 0.5 mg/kg/injection, schedule: Q01DX009 (ip), vehicle: saline 100 % of control

O=C(c1cccc2c1Oc1ccccc1S2)c1cccc2c1Oc1ccccc1S2
inactive: dose: 50.0 mg/kg/injection, schedule: Q01DX005 (ip), vehicle: saline with Tween-80 113 % of control | dose: 100.0 mg/kg/injection, schedule: Q01DX005 (ip), vehicle: saline with Tween-80 103 % of control | dose: 200.0 mg/kg/injection, schedule: Q01DX005 (ip), vehicle: saline with Tween-80 103 % of control

COc1cccc2c1C(=O)c1c(O)c3c(c(O)c1C2=O)C[C@@H](C(C)=O)C[C@@H]3OC1CC(N)C(O)C(C)O1 (stereo partly specified)
inactive: dose: 6.25 mg/kg/injection, schedule: Q04DX003 (ip), vehicle: water 109 % of control | dose: 12.5 mg/kg/injection, schedule: Q04DX003 (ip), vehicle: water 120 % of control | dose: 25.0 mg/kg/injection, schedule: Q04DX003 (ip), vehicle: water 113 % of control | dose: 50.0 mg/kg/injection, schedule: Q04DX003 (ip), vehicle: water 120 % of control | dose: 100.0 mg/kg/injection, schedule: Q04DX003 (ip), vehicle: water 93 % of control

CC(=O)OCC1OC(N(C(C)=O)c2nc(Cl)c3cc[nH]c3n2)C(OC(C)=O)C1OC(C)=O (stereo unspecified)
inactive: dose: 25.0 mg/kg/injection, schedule: Q04DX003 (ip), vehicle: other 102 % of control | dose: 50.0 mg/kg/injection, schedule: Q04DX003 (ip), vehicle: other 105 % of control | dose: 100.0 mg/kg/injection, schedule: Q04DX003 (ip), vehicle: other 105 % of control | dose: 200.0 mg/kg/injection, schedule: Q04DX003 (ip), vehicle: other 104 % of control | dose: 400.0 mg/kg/injection, schedule: Q04DX003 (ip), vehicle: other 108 % of control

CCC(C)C(=O)/C=C/c1ccc(Cl)c(Cl)c1 (stereo unspecified)
inactive: dose: 50.0 mg/kg/injection, schedule: Q01DX009 (ip), vehicle: saline with Tween-80 99 % of control | dose: 100.0 mg/kg/injection, schedule: Q01DX009 (ip), vehicle: saline with Tween-80 99 % of control | dose: 200.0 mg/kg/injection, schedule: Q01DX009 (ip), vehicle: saline with Tween-80 99 % of control

CCCCCCCN(CCCCCCC)C(=N)c1ccc(OC)c2ccccc12
inactive: dose: 6.25 mg/kg/injection, schedule: Q01DX005 (ip), vehicle: Klucel (hydroxypropylcellulose) (HPC) 101 % of control | [1] 101 % of control | [2] 89 % of control

O=C(O)/C(Br)=C(/Br)C(=O)O
inactive: dose: 100.0 mg/kg/injection, schedule: Q04DX002 (ip), vehicle: saline with Tween-80 106 % of control | dose: 200.0 mg/kg/injection, schedule: Q04DX002 (ip), vehicle: saline with Tween-80 100 % of control

O=C1NCCc2ccc(cc2)OC2CCNC2C(=O)N2CCCC12 (stereo unspecified)
inactive: [1] 96 % of control | [2] 107 % of control | [3] 100 % of control

N=c1ncn(C2OC(CO)C(O)C2O)c2nc(Br)[nH]c12 (stereo unspecified)
inactive: [4] 100 % of control | [5] 105 % of control | [6] 100 % of control | [7] 98 % of control

C[c-]1[c-][c-][c-][c-]1.[C-]#[O+].[C-]#[O+].[C-]#[O+].[Mn]
inactive: [1] 94 % of control | [2] 95 % of control | [3] 99 % of control | [8] 99 % of control

O=C1NC(Cc2ccccc2)C(=O)NC1Cc1ccccc1 (stereo unspecified)
inactive: dose: 3.13 mg/kg/injection, schedule: Q01DX009 (ip), vehicle: saline with Tween-80 86 % of control | dose: 6.25 mg/kg/injection, schedule: Q01DX009 (ip), vehicle: saline with Tween-80 100 % of control | dose: 12.5 mg/kg/injection, schedule: Q01DX009 (ip), vehicle: saline with Tween-80 107 % of control | dose: 25.0 mg/kg/injection, schedule: Q01DX009 (ip), vehicle: Klucel (hydroxypropylcellulose) (HPC) 101 % of control | dose: 25.0 mg/kg/injection, schedule: Q01DX009 (ip), vehicle: saline with Tween-80 103 % of control | dose: 50.0 mg/kg/injection, schedule: Q01DX009 (ip), vehicle: Klucel (hydroxypropylcellulose) (HPC) 104 % of control

O=C(Nc1n[nH]c(NC(=O)c2ccccc2)n1)c1ccccc1
inactive: [3] 92 % of control | [8] 88 % of control

CCOC(=O)Cc1cc2cc(OCC)ncc2cc1C
inactive: dose: 6.25 mg/kg/injection, schedule: Q01DX009 (ip), vehicle: distilled water + Tween-80 91 % of control | dose: 12.5 mg/kg/injection, schedule: Q01DX009 (ip), vehicle: distilled water + Tween-80 89 % of control | dose: 25.0 mg/kg/injection, schedule: Q01DX009 (ip), vehicle: distilled water + Tween-80 103 % of control | dose: 50.0 mg/kg/injection, schedule: Q01DX009 (ip), vehicle: distilled water + Tween-80 99 % of control | dose: 100.0 mg/kg/injection, schedule: Q01DX009 (ip), vehicle: distilled water + Tween-80 94 % of control | dose: 200.0 mg/kg/injection, schedule: Q01DX009 (ip), vehicle: distilled water + Tween-80 109 % of control | dose: 400.0 mg/kg/injection, schedule: Q01DX009 (ip), vehicle: distilled water + Tween-80 102 % of control

Cc1cc2nc(CC(=O)c3ccncc3)c(=O)[nH]c2cc1C
inactive: [9] 95 % of control | [10] 87 % of control

Cc1ccc(S(=O)(=O)SSN2CCCCC2)cc1
inactive: [9] 99 % of control | [10] 101 % of control | dose: 240.0 mg/kg/injection, schedule: Q01DX005 (ip), vehicle: saline with Tween-80 99 % of control

C=CN1C(=O)NC2(CCCCC2)C1=O
inactive: [4] 100 % of control | [5] 100 % of control | [6] 90 % of control

CC1(C)CC(C)(OC(=O)c2ccc([N+](=O)[O-])cc2)N=N1 (stereo unspecified)
inactive: dose: 12.5 mg/kg/injection, schedule: Q01DX009 (ip), vehicle: other 102 % of control | dose: 25.0 mg/kg/injection, schedule: Q01DX009 (ip), vehicle: other 97 % of control | dose: 50.0 mg/kg/injection, schedule: Q01DX009 (ip), vehicle: other 102 % of control | dose: 100.0 mg/kg/injection, schedule: Q01DX009 (ip), vehicle: other 100 % of control | dose: 200.0 mg/kg/injection, schedule: Q01DX009 (ip), vehicle: other 101 % of control

NC(=S)N/N=C\c1ccc(/C=N/NC(N)=S)cc1
inactive: [6] 91 % of control | [11] 86 % of control

N#C/C(=C\c1c[nH]c2ccccc12)C(N)=O
inactive: [6] 100 % of control | [7] 100 % of control | [11] 100 % of control
